US20220409692A1, “Systems Chemico-Pharmacology Drugs and Methods of Use” (The Medical College of Wisconsin, priority 2019, published 2022)
Peptide text beside a SMILES is read from it.

Assays:
MPO [1] = target: T1, MPO (Homo sapiens, UniProt P05164); test: MPO oxidation of KYC to thiyl radical, ESR with DMPO; assay type: biochemical; conditions: MPO 120 nM, H2O2 50 μM, KYC 30 μM
T1 sequence (P05164 49-745): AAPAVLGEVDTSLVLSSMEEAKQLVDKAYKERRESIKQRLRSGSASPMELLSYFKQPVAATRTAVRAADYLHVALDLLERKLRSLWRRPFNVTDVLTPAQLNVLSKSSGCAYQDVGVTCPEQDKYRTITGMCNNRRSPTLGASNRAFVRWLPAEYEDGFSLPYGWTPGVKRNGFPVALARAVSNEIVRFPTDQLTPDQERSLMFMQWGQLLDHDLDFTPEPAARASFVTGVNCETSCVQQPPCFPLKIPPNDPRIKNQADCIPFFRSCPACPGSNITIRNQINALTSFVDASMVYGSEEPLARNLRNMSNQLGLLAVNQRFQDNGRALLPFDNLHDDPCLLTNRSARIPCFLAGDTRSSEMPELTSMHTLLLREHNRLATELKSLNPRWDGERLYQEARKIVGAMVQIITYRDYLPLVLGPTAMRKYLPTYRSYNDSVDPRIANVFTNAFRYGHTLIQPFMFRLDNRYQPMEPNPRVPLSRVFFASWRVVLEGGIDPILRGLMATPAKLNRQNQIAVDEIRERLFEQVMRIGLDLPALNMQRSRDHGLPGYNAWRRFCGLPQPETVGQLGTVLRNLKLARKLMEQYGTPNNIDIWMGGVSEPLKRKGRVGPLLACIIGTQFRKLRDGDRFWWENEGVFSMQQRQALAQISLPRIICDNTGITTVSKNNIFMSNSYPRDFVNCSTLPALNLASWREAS
Protocol: FIG. 30. MPO Oxidizes KYC to a KYC Thiyl Radical That Thiylates HMGB1. (A) ESR spectrum of KYC thiyl S°-DMPO generated by an MPO reaction mixture containing MPO (120 nM), H2O2 (50 μM) and KYC (30 μM). (B) Streptavidin-affinity blot of KYC thiylated HMGB1 and MPO in a split sample, one half treated neat and other half treated with DTT (100 mM) to reduce disulfide bonds.
This spectrum is similar to the spectrum of DMPO-S◯-YC generated when the dipeptide YC was added to an MPO reaction mixture containing DMPO [34].

MPO [2] = target: T1, MPO; test: KYC/AA(n) peptide inhibition of MPO HOCl production (TMB assay) at varied pH; assay type: biochemical
Description: Small peptides of generic formula AA(n) (where AA represents different amino acids, and n can be 2-5) are both substrates and inhibitors of MPO (alternatively, inhibitors of EPO). These peptides are […] at the active site of MPO, which subsequently decreases the production of toxic oxidants that includes but not restricted to hypochlorous acid. All MPO activities (i.e., hypochlorous acid production) described herein were quantified by the 3,3′,5,5′-tetramethylbenzidine (TMB) assay. […] The free radical itself may act as an activated species, and is stable enough to react with proximal proteins, peptides, metabolites or small molecules to effect further change. The free radical is not limited to a single target, but may effect change multiple independent targets. In a non-limiting example, the free radical goes on to form a hetero- or homo dimer via an oxidized —S—S— disulfide (or di-Selenium) linkage. Finally, the more interactions between the peptide and active site of MPO that occurs the lower numerical IC50 value of the peptide inhibitor.
KYZ is […] in the presence of MPO, which subsequently decreases the production of hypochlorous acid. All MPO activities (i.e., hypochlorous acid production) were quantified by the 3,3′,5,5′-tetramethylbenzidine (TMB) assay. The tripeptide KXZ, requires amino acid #1 (AA1, K) to be a native amino acid or an artificial amino acid (aa) with a basic side-chain such as an amine functional group (e.g., Lysine (K)). Amino acid #2 (AA2, X) is a native or artificial amino acid that may contain a polar, non-polar, or aromatic amino acid.

adult mice = test: Review of KYC doses in previous studies in adult mice; assay type: in vivo, mouse; conditions: 15 mg/kg twice per day vs 800 mg/kg
Protocol: No KYC dose-response studies were performed in neonatal rat pups in preparation for the current study. Instead, we decided to treat neonatal rat pups empirically with KYC at 5 mg/kg twice per day based on published and unpublished data in adult mice. […] The dose of KYC used in the current study is based on our experience in treating chronic inflammation in other disease states and is within the range that we consider appropriate for neonatal rat pups and adult rats.

Compound: CC(=O)N[C@@H](CCCCN)C(=O)N[C@@H](Cc1ccc(O)cc1)C(=O)N[C@@H](CS)C(N)=O [KYC, N-acetyl lysyltyrosylcysteine amide] (Ac-Lys-Tyr-Cys-NH2)
- ESR spectrum of MPO reaction mixture with DMPO (MPO [1]): four-line ESR spectrum corresponding to DMPO-SO-KYC
- IC50 values compared with KLC (MPO [2]; pH values of 6.5, 7.4 and 8.0): superior
- IC50 values, inhibition of MPO HOCl production (MPO [2]; varied pH): changing of pH has limited effect on the IC50 values
- factor by which the higher dose is below the KYC level observed to induce adverse effects (adult mice): more than 26 times
